# Measured values reported in patent US20060034882A1, “Yarns and fabrics having long-lasting mosquito repellent or antibacterial effect and their preparation” (FORMOSA TAFFETA CO., LTD., priority 2004, published 2006).
# Key:
# rats = details: cited from earlier work
# [1] = amount of compound contained in the fabric before and after laundering (Soxhlet extraction, HPLC); type: physicochemical; details: treated fabric of the Example; for Amounts, Laundering Number L25 (amount of the compound in the fabric after 25 launderings): after 25 launderings (JIS L02173-103), methylene dichloride extraction 4 hours; for Amounts, Laundering Number L0 (amount of the compound in the fabric before laundering): methylene dichloride extraction
# Description: The fabric is subjected to a test for determining the amount of Permethrin and octylisothiazolone contained therein.
# The compounds contained in the fabric are extracted, and determined by High Performance Liquid Chromatography (HPLC).
# The fabric is laundered 25 times (JIS L02173-103). Then, the fabric is extracted for 4 hours with methylene dichloride in a Soxhlet extractor. The extract thus obtained is applied into HPLC for determining the amount of Permethrin or octylisothiazolone.
# The amount of the compound contained in the fabric is determined by extraction and HPLC. L0 represents the amount of the compound before laundering. L25 represents the amount of the compound after 25 launderings.
# rabbits = details: cited from earlier work
SMILES,LD50 for acute oral toxicity in rats (rats),"Amounts, Laundering Number L25 (amount of the compound in the fabric after 25 launderings) [1] [ppm]","Amounts, Laundering Number L25 (amount of the compound in the fabric after 25 launderings) ([1]; listed as octylisothiazolone)","Amounts, Laundering Number L0 (amount of the compound in the fabric before laundering) [1] [ppm]",LD50 for acute dermal toxicity in rabbits (rabbits)
"CCCCCCCCn1sccc1=O [Octylisothiazolone, octylisothiazolone]",up to 270 mg/kg,10,greater than 8 ppm,80,up to 311 mg/kg
CC1(C)C(C=C(Cl)Cl)C1C(=O)OCc1cccc(Oc2ccccc2)c1 (centres unmarked) [Permethrin],up to 470 mg/kg,,,536,greater than 2500 mg/kg
